≈ marks a conversion by molar mass, not a printed value. Where a SMILES comes first, the peptide text is derived from it. Where only a bound is given, the exact number is not on record here.

The test system of data set [1] is C. albicans. It counts as cell-based, Candida albicans. Conditions: 48 h. How it is done: (§1) Two Candida albicans isolates were purchased from the ATCC (No. 24433 and 76615). The other yeast isolates were obtained from the collection of Fondazione Ca' Granda- Ospedale Maggiore Policlinico, Milano. The collection included C. albicans (7 isolates), C. glabrata (3 isolates), and C. krusei (3 isolates). Antifungal susceptibility testing was performed using the broth microdilution method according to the NCCLS M27-A guidelines (National Committee for Clinical Laboratory Standards. 1997, Reference method for broth dilution antifungal susceptibility testing of yeasts and approved standard NCCLS document M27-A. National Committee for Clinical Laboratory Standards, Wayne, Pa.). […] After 48 h of incubation, the plates were inspected for purity. A colony was taken from the agar plate and transferred into 5 mL Sabouraud-dextrose broth and incubated for 48 h at 35°C. Cells were centrifuged at 1,000× g for 10 min and the pellet was washed twice with distilled water. Cells were counted and suspended in RPMI 1640 medium buffered to pH 7.0 with 0.165 mol l^−1 morpholinepropanesulphonic acid (MOPS) buffer (Sigma) to obtain the two times test inoculum (1×10^3 to 5×10^3 CFU/mL). […] The MIC90, i.e. the minimum inhibitory concentrations endpoint were determined as 90% reduction in turbidity measured using a spectrophotometer (Titertek multiscan at 690 nm wave length).

Data set [2] has as its system C. glabrata. It counts as cell-based, Candida glabrata. Conditions: 48 h. How it is done:
as §1

Data set [3] relates to Candida strains (C. albicans, C. glabrata, C. krusei). The experiment in a line: Anti-Candida assay, overall result in words. Type of data set: cell-based, Candida spp. As to conditions: standard culture conditions, broth culture medium. The method, then:
as §1

For data set [4], the system named is Candida. Details: method as in PMID 15743181. Conditions: cited from earlier work.
Data set [5] deals with Staphylococcus epidermidis ATCC 12228. Type of data set: cell-based. As to conditions: ATCC 12228, 18 h. How it is done: (§2) The strains used for the antimicrobial assays were the Gram-negative bacteria Acinetobacter baumani ATCC 19606, Escherichia coli D21, Pseudomonas aeruginosa ATCC 27853, and Pseudomonas syringae pv tabaci 1918NCPPB and the Gram-positive bacteria Bacillus megaterium Bm11, Staphylococcus aureus ATCC 25923, and Staphylococcus epidermidis ATCC 12228. Susceptibility testing was performed by adapting the microbroth dilution method outlined by the Clinical and Laboratory Standards Institute, using sterile 96-well plates (Falcon NJ, USA). The bacterial growth was aseptically measured by absorbance at 590 nm with a spectrophotometer (UV-1700 Pharma Spec Shimadzu, Tokyo, Japan). Afterwards, aliquots (50 µl) of bacteria in mid-log phase at a concentration of 2×10^6 colony-forming units (CFU)/mL in culture medium (Mueller-Hinton, MH) were added to 50 µl of MH broth containing the peptide in serial 2-fold dilutions ranging from 1.56 to 100 µM. Inhibition of microbial growth was determined by measuring the absorbance at 590 nm, after an incubation of 18 h at 37°C with a microplate reader (Infinite M200; Tecan, Salzburg, Austria).

Data set [6] relates to Acinetobacter baumani ATCC 19606. It counts as cell-based. Conditions: ATCC 19606, 18 h. How it is done:
as §2

Data set [7] has as its system Pseudomonas syringae pv tabaci 1918NCPPB. It counts as cell-based. Conditions: 18 h. The method, then: as §2
Data set [8] concerns Staphylococcus aureus ATCC 25923. It counts as cell-based. Conditions: ATCC 25923, 18 h. How it is done:
as §2

Data set [9] concerns Escherichia coli D21. It counts as cell-based. As to conditions: D21, 18 h. How it is done:
as §2

Data set [10] has as its system Pseudomonas aeruginosa ATCC 27853. Type of data set: cell-based. Conditions: ATCC 27853, 18 h. The method, then: as §2
Data set [11] relates to Bacillus megaterium Bm11. It counts as cell-based. As to conditions: Bacillus Bm11, 18 h. The method, then:
as §2

Data set [12] concerns HaCaT keratinocyte cell line. Kind of data set: Cytotoxic activity, MTT colorimetric method. Conditions: highest peptide concentration used (100 µM), 24 h. It counts as cell-based, human. How it is done:
Effects on viability was tested in the immortalised keratinocyte cell line HaCaT using the [3(4,5-dimethylthiazol-2yl)2,5-diphenyltetrazolium bromide] (MTT) colorimetric method in which the intensity of the dye is proportional to the number of viable cells. MTT is a tetrazolium salt which is reduced to a colored formazan product by mitochondrial reductases present only in metabolically active cells. Cells were cultured in Dulbecco's modified Eagle's medium (DMEM; Sigma) supplemented with 10% heat inactivated fetal bovine serum, glutamine (4 mM) and gentamicin. Afterwards, cells were plated in triplicate wells of a microtiter plate, at 4×10^4 cells/well in DMEM supplemented with 2% serum without antibiotic. After overnight incubation at 37°C in a 5% CO2 atmosphere, the medium was replaced with […] fresh DMEM supplemented with the peptides at different concentrations. The plate was incubated for 24 h at 37°C in a 5% CO2 atmosphere. Then, DMEM was removed and replaced with Hank's medium (136 mM NaCl; 4.2 mM Na2HPO4; 4.4 mM KH2PO4; 5.4 mM KCl; 4.1 mM NaHCO3, pH 7.2, supplemented with 20 mM D-glucose) containing 0.5 mg/ml MTT. After 4 h incubation, the formazan crystals were dissolved by adding 100 µl of acidified isopropanol and absorption of each well was measured using a microplate reader (Infinite M200; Tecan, Salzburg, Austria) at 570 nm. Cell viability was e expressed as percentage of viability in control cells (cells not treated with peptide).
Figure 1 Effects of the synthetic melanocortins on viability of HaCat cells. Cells were plated in wells of a microtiter plate, at 4×10^4 cells/well in DMEM supplemented with 2% serum without antibiotic. After overnight incubation at 37°C in a 5% CO2 atmosphere, the medium was replaced with 100 µl fresh DMEM supplemented with the peptides at different concentrations. […] Cell viability is expressed as percentage of viability in control cells (cells not treated with the peptide).

The test system of data set [13] is C. krusei. It counts as cell-based, Candida krusei. As to conditions: 48 h. How it is done: as §1

Consider `CC(C)[C@H](NC(=O)[C@H](Cc1ccccc1)NC(=O)[C@H](CCCCN)NC(=O)CNC(=O)[C@H](Cc1c[nH]c2ccccc12)NC(=O)[C@H](CCCNC(=N)N)NC(=O)[C@@H](Cc1ccc2ccccc2c1)NC(=O)[C@@H](N)Cc1c[nH]cn1)C(N)=O` [DNal, H-His-D(2′)Nal-Arg-Trp-Gly-Lys-Phe-Val-NH2, reference compound] (HELM PEPTIDE1{H.[O=C([C@@H](Cc1ccc2ccccc2c1)N[*:1])[*:2]].R.W.G.K.F.V.[am]}$$$$V2.0), for which the “MIC 90” value in [1], in data set [2] and in [13] was greater than 100 µM throughout. The “antimicrobial / anti-Candida activity (in words)” value in data set [3] was “did not have substantial antimicrobial activity”. Moreover, in data set [4] (in growth medium ref 7), the “killing of Candida (in words)” value is recorded as “did not kill”. Besides, the Candida organisms killed in data set [4] (organisms incubated in distilled water ref 7) is reported as 100%. Moreover, the “MIC 100” value in data set [5] is 50 µM (≈ 56.3 µg/mL); in data set [6] it was greater than 100 µM; in data set [7], greater than 100 µM; in data set [8] it was greater than 100 µM; in [9], greater than 100 µM; in data set [10], 100 µM (≈ 113 µg/mL). Further, the “MIC 100” value in [11] amounted to 6 µM (≈ 6.75 µg/mL). The “cell death / killing of human keratinocytes” value in [12] is 50–100%.

(Values after article PMC3634028, “Novel α-MSH Peptide Analogues with Broad Spectrum Antimicrobial Activity” (PLoS ONE, 2013).)
